# Data as given in patent EP1311486B1, “USES OF THALIPORPHINE OR ITS DERIVATIVES IN TREATMENT OF CARDIAC DISEASES AND PREPARATION OF SAME” (Lotus Pharmaceutical Co., Ltd., priority 2000, dated 2002).
# Several values for one entry are separate records, joined by “and”; a condition that tells them apart may be missing. Equal values may be shown once.
# Tested on: rats subjected to 4 hours coronary ligation
# Test: Area at risk and infarct size after 4 hours coronary ligation (triphenyl tetrazolium chloride-Evan's blue staining)
# Type: in vivo, rat
# Experimental: Infarct size was determined by the triphenyl tetrazolium chloride-Evan's blue staining technique. The rat was sacrificed after its left descending coronary artery had been occluded for 4 hours. The weight of infarct tissue was expressed as a percentage of total ventricular weight or occluded zone. The difference in infarct size was statistically analyzed using unpaired Student's t-test. Table 4 Area at risk and infarct size in vehicle and THP-treated rats subjected to 4 hours coronary ligation
# The difference in ischemic area and infarct size shown by staining technique after 4 hours of ischemia is evaluated. […] In the vehicle group, the necrotic area expresses either as a percentage of the area at risk (45.2±1.0%) or as a percentage of the total ventricle (19.8±2.2%), indicating the amount of cardiac tissue at risk becomes necrotic. Administration of THP reduces myocardial necrosis extension in a dose dependent manner. This reduction is observed either in the necrotic area/area at risk (38.1±5.0%, 29.0±2.5% and 10.7±1.8%/with 3.5x10^-7, 10^-6, 10^-5 g/kg of THP, respectively) or in the necrotic area/total ventricle (17.9+2.3%, 13.4±1.2% and 5.0±0.9% with 3.5x10^-7, 10^-6, 10^-5 g/kg of THP, respectively).
smiles,measurement,setting,value
"COc1cc2c(cc1OC)-c1c(O)c(OC)cc3c1C(C2)N(C)CC3 (single isomer, unassigned; (+)) [THP, (+)-Thaliporphine]",Area at risk (% of ventricle),THP 3.5x10^-5 g/kg,46.9±0.5 % of ventricle
same,Necrotic (% of Area at risk),THP 3.5x10^-5 g/kg,10.7±1.8 % of Area at risk
same,Necrotic (% of ventricle),THP 3.5x10^-5 g/kg,5.0±0.9 % of ventricle
same,Area at risk (% of ventricle),THP 3.5x10^-6 g/kg,46.5±0.9 % of ventricle
same,Necrotic (% of Area at risk),THP 3.5x10^-6 g/kg,29.0±2.5 % of Area at risk
same,Necrotic (% of ventricle),THP 3.5x10^-6 g/kg,13.4±1.2 % of ventricle
same,Area at risk (% of ventricle),THP 3.5x10^-7 g/kg,47.0±0.6 % of ventricle
same,Necrotic (% of Area at risk),THP 3.5x10^-7 g/kg,38.1±5.0 % of Area at risk
same,Necrotic (% of ventricle),THP 3.5x10^-7 g/kg,17.9+2.3 % of ventricle and 17.9±2.3 % of ventricle
